The source of these data is patent US8361487B1, “Ant controllers and method for application thereof” (BASF Aktiengesellschaft, priority 1999, dated 2013).

Structures are written as SMILES.

For the first experiment, the system named is fireant (Solenopsis geminata). The experiment is described as follows: Test Example 2: drench treatment of fireant nests. It is filed as in vivo. The arrangement: key: A: Nest is completely destructed or activity of the nest is extremely low.; B: Activity of the nest is exhibited.; C: High activity of the nest is exhibited.; D: Activity of the nest is extremely high. The note with it: 1 g of the active ingredient per one nest, 14 days after the treatment. On the procedure: The ant controller of the present invention was applied to nests (anthill) of fireant (Solenopsis geminata) with drench treatment, in terms of 1 g of the active ingredient per one nest. 14 Days after the treatment of the ant controller, the activity of the nests was evaluated according to the following criterion. The test was carried out with one block per one nest.
Turning to `N#Cc1ccc(CC(=NNC(=O)Nc2ccc(OC(F)(F)F)cc2)c2cccc(C(F)(F)F)c2)cc1` [Compound 44], the “activity of the nests (effect)” value was “A”.

For a further experiment, the system named is Coptotermes formosanus Shiraki. The experiment is described as follows: Test Example 1: termite-killing test on treated filter paper. The settings on record: mortality class; 1 ml of a 500 ppm solution on filter paper, seven days after inoculation, triplicate group of 10 insects. In kind it is in vivo. Here is the method:
A filter paper was spread in a glass dish having a diameter of 9 cm, onto which was dropped 1 ml of a 500 ppm solution of the ant controller of the present invention. Then, the filter paper was inoculated with Coptotermes formosanus Shiraki. Seven days after the inoculation, percentage of dead insects was investigated, from which mortality was calculated. The test was carried out with triplicate group of 10 insects.
Turning to `N#Cc1ccc(CC(=NNC(=O)Nc2ccc(OC(F)(F)F)cc2)c2cccc(C(F)(F)F)c2)cc1` [Compound 44], the Termite-killing effect entry is “C (89-80)”. With `N#Cc1ccc(CC(NNC(=O)Nc2ccc([S+]([O-])C(F)(F)F)cc2)c2cccc(Cl)c2)cc1` (stereo not drawn) [Compound 93], the Termite-killing effect entry is on record as “D (79-50)”.

For the compound `N#Cc1ccc(CC(NNC(=O)Nc2ccc(S(=O)(=O)C(F)(F)F)cc2)c2cccc(Cl)c2)cc1` (stereo not drawn) [Compound 94], the Termite-killing effect result is given as “A (100)”. The same measure, in the same setting: as for `N#Cc1ccc(CC(NNC(=O)Nc2ccc(OC(F)(F)F)cc2)c2cccc(Br)c2)cc1` (stereo not drawn) [Compound 95], the entry is “A (100)”; as for `N#Cc1ccc(CC(NNC(=O)Nc2ccc(SC(F)(F)F)cc2)c2cccc(C(F)(F)F)c2)cc1` (stereo not drawn) [Compound 97], “A (100)”.

With `FC(F)(F)Oc1ccc(NC(=S)NNC(Cc2ccc(Cl)cc2)c2ccccc2)cc1` (stereo not drawn) [Compound 98], the Termite-killing effect entry is reported as “A (100)”. The same measure, in the same setting: the same measure for `N#Cc1ccc(CC(NNC(=S)Nc2ccc(OC(F)(F)F)cc2)c2cccc(Cl)c2)cc1` (stereo not drawn) [Compound 99]: “A (100)”; for `N#Cc1ccc(CC(NNC(=S)Nc2ccc(OC(F)(F)F)cc2)c2cccc(C(F)(F)F)c2)cc1` (stereo not drawn) [Compound 100]: “A (100)”. Same read-out and setting: the same measure for `CC(=O)N(NC(=O)Nc1ccc(OC(F)(F)F)cc1)C(Cc1ccc(C#N)cc1)c1cccc(Cl)c1` (stereo not drawn) [Compound 101]: “A (100)”; for `N#Cc1ccc(CC(c2cccc(Cl)c2)N(NC(=O)Nc2ccc(OC(F)(F)F)cc2)C(=O)c2ccccc2)cc1` (stereo not drawn) [Compound 102]: “A (100)”; for `CCNC(=O)N(NC(=O)Nc1ccc(OC(F)(F)F)cc1)C(Cc1ccc(C#N)cc1)c1cccc(Cl)c1` (stereo not drawn) [Compound 103]: “A (100)”. As to `O=C(NNC(Cc1ccc(F)cc1)c1ccccc1)Nc1ccc(OC(F)(F)F)cc1` (stereo not drawn) [Compound 109], the Termite-killing effect result is recorded as “C (89-80)”. As to `O=C(NNC(Cc1ccc(Br)cc1)c1ccccc1)Nc1ccc(Cl)cc1` (stereo not drawn) [Compound 110], the Termite-killing effect entry was “B (99-90)”. Regarding `O=C(NNC(Cc1ccc(Br)cc1)c1ccccc1)Nc1ccc(OC(F)(F)F)cc1` (stereo not drawn) [Compound 111], the Termite-killing effect result is listed as “D (79-50)”. The same measure, in the same setting: the same measure for `N#Cc1cccc(CC(NNC(=O)Nc2ccc(OC(F)(F)F)cc2)c2ccccc2)c1` (stereo not drawn) [Compound 112]: “A (100)”; for `O=C(NNC(Cc1ccccc1[N+](=O)[O-])c1ccccc1)Nc1ccc(OC(F)(F)F)cc1` (stereo not drawn) [Compound 113]: “A (100)”; for `N#Cc1ccc(CC(NNC(=O)Nc2ccc(OC(F)(F)F)cc2)c2cccc(F)c2)cc1` (stereo not drawn) [Compound 114]: “B (99-90)”. The same measure, in the same setting: as for `N#Cc1ccc(CC(NNC(=O)Nc2ccc(SC(F)(F)F)cc2)c2cccc(F)c2)cc1` (stereo not drawn) [Compound 115], the entry is “A (100)”; as for `N#Cc1ccc(CC(NNC(=O)Nc2ccc([S+]([O-])C(F)(F)F)cc2)c2cccc(F)c2)cc1` (stereo not drawn) [Compound 116], “B (99-90)”. On the same count and under the same terms, as for `N#Cc1ccc(CC(NNC(=O)Nc2ccc([S+]([O-])C(F)(F)F)cc2)c2cccc(C(F)(F)F)c2)cc1` (stereo not drawn) [Compound 119], the entry is “A (100)”; as for `N#Cc1ccc(CC(NNC(=O)Nc2ccc(S(=O)(=O)C(F)(F)F)cc2)c2cccc(C(F)(F)F)c2)cc1` (stereo not drawn) [Compound 120], “A (100)”; as for `N#Cc1cccc(CC(NNC(=O)Nc2ccc(OC(F)(F)F)cc2)c2ccccc2)c1` (stereo not drawn) [Compound 121], “C (89-80)”. With `O=C(C=NN(Cc1ccccc1)c1ccccc1)Nc1ccc(OC(F)(F)F)cc1` [Compound 122], the Termite-killing effect result is “D (79-50)”. The same measure, in the same setting: as for `O=C(C=NN(Cc1ccc(Cl)cc1)c1ccccc1)Nc1ccc(OC(F)(F)F)cc1` [Compound 123], the entry is “A (100)”; as for `N#Cc1ccc(CN(N=CC(=O)Nc2ccc(Cl)cc2)c2ccccc2)cc1` [Compound 124], “D (79-50)”. Same read-out and setting: the same measure for `N#Cc1ccc(CN(N=CC(=O)Nc2ccc(OC(F)(F)F)cc2)c2ccccc2)cc1` [Compound 125]: “A (100)”; for `O=C(C=NN(Cc1ccc(Cl)cc1)c1cccc(Cl)c1)Nc1ccc(Cl)cc1` [Compound 126]: “A (100)”. As for `O=C(C=NN(Cc1ccc(Cl)cc1)c1cccc(Cl)c1)Nc1ccc(OC(F)(F)F)cc1` [Compound 127], the Termite-killing effect entry is reported as “A (100)”. Still for that read-out and setting: as for `O=C(C=NN(Cc1ccc([N+](=O)[O-])cc1)c1cccc(Cl)c1)Nc1ccc(Cl)cc1` [Compound 128], the entry is “A (100)”.

Turning to `O=C(C=NN(Cc1ccc([N+](=O)[O-])cc1)c1cccc(Cl)c1)Nc1ccc(OC(F)(F)F)cc1` [Compound 129], the Termite-killing effect entry is reported as “A (100)”. Still for that read-out and setting: as for `N#Cc1ccc(CN(N=CC(=O)Nc2ccc(Cl)cc2)c2cccc(Cl)c2)cc1` [Compound 130], the entry is “C (89-80)”.

In the case of `N#Cc1ccc(CN(N=CC(=O)Nc2ccc(OC(F)(F)F)cc2)c2cccc(Cl)c2)cc1` [Compound 131], the Termite-killing effect result is reported as “C (89-80)”. Same read-out and setting: the same measure for `N#Cc1ccc(CN(N=CC(=O)Nc2ccc(SC(F)(F)F)cc2)c2cccc(Cl)c2)cc1` [Compound 132]: “A (100)”; for `N#Cc1ccc(CN(N=CC(=O)Nc2ccc([S+]([O-])C(F)(F)F)cc2)c2cccc(Cl)c2)cc1` (stereo not drawn) [Compound 133]: “A (100)”.

For the compound `N#Cc1ccc(CN(N=CC(=O)Nc2ccc(Cl)cc2)c2cccc(F)c2)cc1` [Compound 134], the Termite-killing effect result is reported as “A (100)”. On the same count and under the same terms, the same measure for `N#Cc1ccc(CN(N=CC(=O)Nc2ccc(OC(F)(F)F)cc2)c2cccc(F)c2)cc1` [Compound 135]: “B (99-90)”. Regarding `Cc1cccc(N(Cc2ccc(C#N)cc2)N=CC(=O)Nc2ccc(Cl)cc2)c1` [Compound 136], the Termite-killing effect entry is “A (100)”. `Cc1cccc(N(Cc2ccc(C#N)cc2)N=CC(=O)Nc2ccc(OC(F)(F)F)cc2)c1` [Compound 137]: the Termite-killing effect result is “A (100)”. Consider `N#Cc1ccc(CN(N=CC(=O)Nc2ccc(Cl)cc2)c2cccc(C(F)(F)F)c2)cc1` [Compound 138], for which the Termite-killing effect entry is given as “A (100)”. Take `N#Cc1ccc(CN(N=CC(=O)Nc2ccc(OC(F)(F)F)cc2)c2cccc(C(F)(F)F)c2)cc1` [Compound 139]: the Termite-killing effect result is listed as “A (100)”. Consider `CC(=NN(Cc1ccc(C#N)cc1)c1cccc(Cl)c1)C(=O)Nc1ccc(OC(F)(F)F)cc1` [Compound 140], for which the Termite-killing effect result is given as “A (100)”. On the same count and under the same terms, as for `CN(C(=O)C=NN(Cc1ccc(C#N)cc1)c1cccc(C(F)(F)F)c1)c1ccc(Cl)cc1` [Compound 141], the entry is “D (79-50)”. In the case of `N#Cc1ccccc1CN(N=CC(=O)Nc1ccc(OC(F)(F)F)cc1)c1cccc(Cl)c1` [Compound 142], the Termite-killing effect entry is listed as “C (89-80)”.

For the compound `O=C(CNN(Cc1ccccc1)c1ccccc1)Nc1ccc(OC(F)(F)F)cc1` [Compound 143], the Termite-killing effect result was “C (89-80)”. Same read-out and setting: the same measure for `O=C(CNN(Cc1ccc(Cl)cc1)c1ccccc1)Nc1ccc(OC(F)(F)F)cc1` [Compound 144]: “B (99-90)”.

Take `N#Cc1ccc(CN(NCC(=O)Nc2ccc(Cl)cc2)c2ccccc2)cc1` [Compound 145]: the Termite-killing effect entry was “A (100)”.

In the case of `N#Cc1ccc(CN(NCC(=O)Nc2ccc(OC(F)(F)F)cc2)c2ccccc2)cc1` [Compound 146], the Termite-killing effect entry is “D (79-50)”.

For `O=C(CNN(Cc1ccc(Cl)cc1)c1cccc(Cl)c1)Nc1ccc(Cl)cc1` [Compound 147], the Termite-killing effect entry is listed as “A (100)”. Same read-out and setting: as for `O=C(CNN(Cc1ccc(Cl)cc1)c1cccc(Cl)c1)Nc1ccc(OC(F)(F)F)cc1` [Compound 148], the entry is “A (100)”.

Take `O=C(CNN(Cc1ccc([N+](=O)[O-])cc1)c1cccc(Cl)c1)Nc1ccc(Cl)cc1` [Compound 149]: the Termite-killing effect entry is reported as “A (100)”. Take `O=C(CNN(Cc1ccc([N+](=O)[O-])cc1)c1cccc(Cl)c1)Nc1ccc(OC(F)(F)F)cc1` [Compound 150]: the Termite-killing effect result is given as “C (89-80)”. The same measure, in the same setting: as for `N#Cc1ccc(CN(NCC(=O)Nc2ccc(Cl)cc2)c2cccc(Cl)c2)cc1` [Compound 151], the entry is “C (89-80)”; as for `N#Cc1ccc(CN(NCC(=O)Nc2ccc(OC(F)(F)F)cc2)c2cccc(Cl)c2)cc1` [Compound 152], “B (99-90)”. In the case of `N#Cc1ccc(CN(NCC(=O)Nc2ccc(Cl)cc2)c2cccc(F)c2)cc1` [Compound 153], the Termite-killing effect result was “A (100)”. On the same count and under the same terms, as for `N#Cc1ccc(CN(NCC(=O)Nc2ccc(OC(F)(F)F)cc2)c2cccc(F)c2)cc1` [Compound 154], the entry is “B (99-90)”; as for `Cc1cccc(N(Cc2ccc(C#N)cc2)NCC(=O)Nc2ccc(Cl)cc2)c1` [Compound 155], “A (100)”; as for `Cc1cccc(N(Cc2ccc(C#N)cc2)NCC(=O)Nc2ccc(OC(F)(F)F)cc2)c1` [Compound 156], “B (99-90)”. The same measure, in the same setting: as for `N#Cc1ccc(CN(NCC(=O)Nc2ccc(Cl)cc2)c2cccc(C(F)(F)F)c2)cc1` [Compound 157], the entry is “A (100)”. For the compound `N#Cc1ccc(CN(NCC(=O)Nc2ccc(OC(F)(F)F)cc2)c2cccc(C(F)(F)F)c2)cc1` [Compound 158], the Termite-killing effect result is “C (89-80)”.
